From ChEMBL document CHEMBL1201862, “PubChem BioAssay data set” (2004)
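Following 48 hours of exposure in 96-well plates, responses at five concentrations were used to interpolate endpoints linearly. GI50: concentration for 50% inhibition of growth.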 Calls of active or inactive are those of the source. No stated cut-off is given here; in the data, active = GI50 up to about 1.1 µM and inactive = higher.

Legend:
Experiment in all cases: NCI tumour cell line growth inhibition, 48 h
[1] = test system: NCI-H23
[2] = test system: TK-10
[3] = test system: Hs-578T
[4] = test system: K562
[5] = test system: HL-60
[6] = test system: SF-539
[7] = test system: CAKI-1
[8] = test system: NCI-H460
[9] = test system: MDA-N
[10] = test system: DU-145
[11] = test system: LOX IMVI
[12] = test system: ACHN
[13] = test system: SK-MEL-5
[14] = test system: DMS-273
[15] = test system: HOP-18
[16] = test system: DLD-1
[17] = test system: DMS-114
[18] = test system: SNB-78
[19] = test system: M19-MEL

Row | SMILES | GI50 [1] | GI50 [2] | GI50 [3] | GI50 [4] | GI50 [5] | GI50 [6] | GI50 [7] | GI50 [8] | GI50 [9] | GI50 [10] | GI50 [11] | GI50 [12] | GI50 [13] | GI50 [14] | GI50 [15] | GI50 [16] | GI50 [17] | GI50 [18] | GI50 [19]
1 | O=c1cc(N2CCCC2)[nH]c(=O)n1-c1cccc(C(F)(F)F)c1 | > 100 µM (inactive) | > 100 µM (inactive) | > 100 µM (inactive) | > 100 µM (inactive) | > 100 µM (inactive) | > 100 µM (inactive) | > 100 µM (inactive) | > 100 µM (inactive) | > 100 µM (inactive) | > 100 µM (inactive) | > 100 µM (inactive) | > 100 µM (inactive) | – | – | – | – | – | – | –
2 | O=C(O)c1nc2ccc(C(F)(F)F)cc2[nH]c1=O | > 100 µM (inactive) | > 100 µM (inactive) | > 100 µM (inactive) | > 100 µM (inactive) | > 100 µM (inactive) | > 100 µM (inactive) | > 100 µM (inactive) | > 100 µM (inactive) | > 100 µM (inactive) | > 100 µM (inactive) | > 100 µM (inactive) | > 100 µM (inactive) | > 100 µM (inactive) | – | – | – | – | – | –
3 | CC1CNC(NS(=O)(=O)c2cc(C(=O)Nc3ccc(F)cc3)c(Cl)cc2S)=NN1 (centres undefined) | 50.4 µM (inactive) | > 100 µM (inactive) | – | 32.8 µM (inactive) | > 100 µM (inactive) | 39.5 µM (inactive) | > 100 µM (inactive) | 78.5 µM (inactive) | – | > 100 µM (inactive) | 54.5 µM (inactive) | 77.4 µM (inactive) | 26.2 µM (inactive) | – | – | – | – | – | –
4 | CS(=O)(=O)OCC1=C(COS(C)(=O)=O)C(=O)c2c(O)ccc(O)c2C1=O | > 100 µM (inactive) | > 100 µM (inactive) | – | > 100 µM (inactive) | > 100 µM (inactive) | > 100 µM (inactive) | > 100 µM (inactive) | – | – | – | – | > 100 µM (inactive) | > 100 µM (inactive) | > 100 µM (inactive) | > 100 µM (inactive) | > 100 µM (inactive) | > 100 µM (inactive) | > 100 µM (inactive) | –
5 | CN(C)CCCNc1ccc2nnn3c4ccc(O)cc4c(=O)c1c23 | 3.56 µM (inactive) | 4.67 µM (inactive) | 1.41 µM (inactive) | 7.26 µM (inactive) | 3.72 µM (inactive) | 6.44 µM (inactive) | 1.64 µM (inactive) | 0.453 µM (active) | 6.52 µM (inactive) | 5.01 µM (inactive) | 1.16 µM (inactive) | 1.26 µM (inactive) | 5.73 µM (inactive) | – | 9.06 µM (inactive) | 1.42 µM (inactive) | 9.18 µM (inactive) | 6.08 µM (inactive) | 12.6 µM (inactive)
6 | CN(C)CCCCN1CCc2c(n(C)c3ccccc23)C1=O | 54.2 µM (inactive) | – | 33 µM (inactive) | 26.2 µM (inactive) | 51.4 µM (inactive) | – | 29.6 µM (inactive) | – | 19.3 µM (inactive) | – | 19.4 µM (inactive) | 72.1 µM (inactive) | 17.7 µM (inactive) | – | – | – | – | – | –
7 | Cc1ccc(-c2c(C#N)c(-c3ccc([N+](=O)[O-])cc3)c(C#N)c(=O)n2NS(=O)(=O)c2ccccc2)cc1 | – | 41.3 µM (inactive) | 0.589 µM (active) | 39.3 µM (inactive) | – | 32.3 µM (inactive) | 97.3 µM (inactive) | 32.3 µM (inactive) | 84.3 µM (inactive) | – | 25.9 µM (inactive) | 39.2 µM (inactive) | 12.1 µM (inactive) | – | – | – | – | – | –
8 | COC(=O)c1c(-c2ccccc2)c2sc3ccccc3n2c1N | 72.1 µM (inactive) | 54.3 µM (inactive) | – | > 100 µM (inactive) | – | 28.1 µM (inactive) | 51.3 µM (inactive) | 40.2 µM (inactive) | 50.4 µM (inactive) | 57.5 µM (inactive) | 17.3 µM (inactive) | 50 µM (inactive) | 59 µM (inactive) | – | – | – | – | – | –
9 | CC(C)NC(=O)OCc1c(COC(=O)NC(C)C)c(-c2cc[n+](COC(=O)Cc3ccccc3)cc2)n2c1CCC2 | 56.6 µM (inactive) | > 100 µM (inactive) | > 100 µM (inactive) | > 100 µM (inactive) | 31.9 µM (inactive) | > 100 µM (inactive) | 37.8 µM (inactive) | 52 µM (inactive) | > 100 µM (inactive) | > 100 µM (inactive) | > 100 µM (inactive) | 40.5 µM (inactive) | > 100 µM (inactive) | – | – | – | – | – | –
10 | Cc1c2ccnc(-c3ccccc3)c2cc2c1[nH]c1ccccc12 | 1.01 µM (active) | – | – | 1.58 µM (inactive) | 2.09 µM (inactive) | 2.45 µM (inactive) | 0.655 µM (active) | 1.06 µM (active) | – | – | 1.05 µM (active) | – | 0.614 µM (active) | 0.425 µM (active) | 2.15 µM (inactive) | 2.99 µM (inactive) | 1.69 µM (inactive) | 4.32 µM (inactive) | 0.959 µM (active)
